Where “and” joins values, the source holds several entries; their conditions need not be identical. Equal values may be shown once.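 Where inhibition never reached the appropriate level, the endpoint shown equals the highest concentration tested. Otherwise, values were interpolated linearly from a five-concentration, 48-hour dose response in 96-well plates. GI50 is the concentration that inhibits growth by half. TGI denotes the concentration required for complete inhibition of growth.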
Assays:
Experiment in all cases: NCI tumour cell line growth inhibition, 48 h
[1] = test system: CAKI-1 renal
[2] = test system: EKVX NSCLC
[3] = test system: IGROV1 ovarian
[4] = test system: OVCAR-3 ovarian
[5] = test system: OVCAR-5 ovarian
[6] = test system: SR leukemia
[7] = test system: UACC-257 melanoma
[8] = test system: UACC-62 melanoma
[9] = test system: K-562 leukemia
[10] = test system: HS 578T breast

SMILES | TGI [1] | TGI [2] | TGI [3] [µM] | TGI [4] | TGI [5] | TGI [6] [µM] | TGI [7] | TGI [8] | TGI [9] [µM] | GI50 [10] [nM] | TGI [10] [µM] | GI50 [2] [nM] | GI50 [3] [nM] | GI50 [9] [nM] | GI50 [4] [nM] | GI50 [5] [µM] | GI50 [6] [nM] | GI50 [7] [nM] | GI50 [8] [nM] | GI50 [1] [nM]
COC(=O)C1=C(C(=O)OC)C2(OC(C)=O)c3ccccc3-c3ccccc3C12 (stereo unspecified) | 6.08 µM | 24.1 µM | 10.1 | 9.94 µM | 27.2 µM | 16.5 | 11.8 µM | 24.4 µM |  |  |  |  |  |  |  |  |  |  |  | 
Brc1ccc(-c2nnc(-c3nn(-c4ccccc4)c4nc5ccccc5nc34)o2)cc1 | > 100 µM | > 100 µM | > 100 | > 100 µM | > 100 µM | > 100 | > 100 µM | > 100 µM | > 100 |  |  |  |  |  |  |  |  |  |  | 
CCn1cc(/C=C/C(C)c2cn(CC)c(=O)[nH]c2=O)c(=O)[nH]c1=O (stereo unspecified) | > 100 µM | > 100 µM | > 100 | > 100 µM | > 100 µM |  | > 100 µM | > 100 µM | > 100 |  |  |  |  |  |  |  |  |  |  | 
CC[C@H]1CN2CCc3cc(OC)c(OC)cc3[C@@H]2C[C@@H]1C[C@H]1NCCc2cc(O)c(OC)cc21 | 0.0847 µM and 0.375 µM | 0.0779 µM and 0.0344 µM and 0.0322 µM |  | 0.0774 µM and 0.287 µM | 0.0751 µM and 0.503 µM |  | 0.104 µM and 0.346 µM | 0.0725 µM and 0.0247 µM and 0.105 µM | 2.65 | 13.8 | 0.0539 |  |  |  |  |  |  |  |  | 
CC(=O)O/N=C/c1ncccc1OC(C)=O | > 100 µM | > 100 µM | > 100 | > 100 µM | > 100 µM | > 100 | > 100 µM | > 100 µM | > 100 |  |  |  |  |  |  |  |  |  |  | 
COC1=CC(O)(CC(N)=O)c2ccccc2C1=O (stereo unspecified) | > 100 µM | > 100 µM | > 100 | > 100 µM | > 100 µM | > 100 | > 100 µM | > 100 µM | > 100 |  |  |  |  |  |  |  |  |  |  | 
Cc1cc(N(CCC#N)S(C)(=O)=O)ccc1C=O | > 100 µM |  | > 100 | > 100 µM | > 100 µM | > 100 | > 100 µM | > 100 µM | > 100 |  |  |  |  |  |  |  |  |  |  | 
CCC[CH2][Sn]([CH2]CCC)([O]C(=O)c1cc(F)cc(F)c1)[O]C(=O)c1cc(F)cc(F)c1 |  | 2.55 µM | 2.94 | 2.65 µM | 2.96 µM | 3.29 | 2.28 µM | 2.31 µM | 0.965 |  |  | 1290 | 1550 | 228 | 1360 | 1.6 | 459 | 1090 | 1110 | 
Cc1ccc(NC(=O)c2cccc([N+](=O)[O-])c2O)c([N+](=O)[O-])c1 | > 100 µM | 48.4 µM | 44.9 | 44.1 µM | 39.4 µM |  | 33.4 µM | 24.8 µM | > 100 |  |  |  |  |  |  |  |  |  |  | 
CCCN(CCCC(NC(C)=O)C(=O)NCc1ccccc1)C(=O)NC (stereo unspecified) | > 100 µM | > 100 µM | > 100 | > 100 µM | > 100 µM |  | > 100 µM | > 100 µM | > 100 |  |  |  |  |  |  |  |  |  |  | 
N/N=C1\C(=O)N(C2CCCCC2)C(=O)C1C(=O)NC1CCCCC1 (stereo unspecified) | > 100 µM | > 100 µM | > 100 | 51 µM | > 100 µM | > 100 | > 100 µM | > 100 µM | > 100 |  |  |  |  |  |  |  |  |  |  | 
COc1ccc(C2=NNC(=O)OC2c2ccccc2)cc1 (stereo unspecified) | > 100 µM | > 100 µM | > 100 | > 100 µM | > 100 µM | > 100 | > 100 µM | > 100 µM | > 100 |  |  |  |  |  |  |  |  |  |  | 
COc1ccc(/C(=N/NC(=O)NN)C(c2ccc(OC)cc2)C2(O)CNc3c(Cl)cc(Cl)cc32)cc1 (stereo unspecified) |  | > 100 µM | > 100 | > 100 µM | > 100 µM |  | > 100 µM | > 100 µM | > 100 |  |  |  |  |  |  |  |  |  |  | 
CCOC(=O)C(=O)Nc1c(F)cc(F)cc1Br | > 100 µM | > 100 µM | > 100 | > 100 µM | > 100 µM | > 100 | > 100 µM | > 100 µM | > 100 |  |  |  |  |  |  |  |  |  |  | 
CCOC(=O)N1CCc2cc(OC)c(OC)c3c2C1CC3=O (stereo unspecified) | > 100 µM |  | > 100 |  | > 100 µM | > 100 | > 100 µM | > 100 µM | > 100 |  |  |  |  |  |  |  |  |  |  | 
Cc1cc2cc3cc(C)c(N(C)C)cc3nc2cc1N(C)C | 25.3 µM |  | > 100 | 11.1 µM | > 100 µM |  | 21.8 µM | 17.2 µM | > 100 | 1890 | 18.1 |  | 4960 | 4790 | 2540 | 8.37 |  | 3370 | 2970 | 2220
COc1cc(C(=O)/C=C/c2cc(C(=O)c3cc(OC)c(OC)c(OC)c3)ccc2OC)ccc1N | 19.4 µM |  | 8.62 | 4.17 µM |  |  | 3.14 µM | 2.66 µM | > 100 | 1390 | > 100 |  | 2070 | 386 | 448 |  |  | 1320 | 1170 | 669
COc1cc(/C=C/c2cc(/C=C/c3ccc(O)c(OC)c3)n(-c3c(C)cccc3C)c(=O)n2)ccc1O | 14.9 µM | 6.73 µM | 6.87 | 6.6 µM | 9.59 µM |  | 6.54 µM | 3.28 µM | > 100 | 817 | > 100 | 1860 | 1240 | 374 | 1370 | 2.65 |  | 1620 | 635 | 859
CCN(CC)c1cc(/C=C/c2ccc(OC)c(OC)c2)nc2cc(F)c(F)cc12 | > 100 µM |  | 12 | 33.3 µM | > 100 µM | 12.3 | > 100 µM | > 100 µM |  | 3090 | 12.3 |  | 3460 |  | 5540 | 20.3 | 3150 | 15200 | 7040 | 19000
O=C(CC1(O)C(=O)Nc2ccccc21)c1ccccc1Cl (stereo unspecified) | > 100 µM | > 100 µM | > 100 | > 100 µM | > 100 µM |  | > 100 µM | > 100 µM | > 100 |  |  |  |  |  |  |  |  |  |  | 
COc1ccc(C(O)/C(=N\NC(N)=S)c2nc3ccc([N+](=O)[O-])cc3[nH]c2=O)cc1OC (stereo unspecified) |  | > 100 µM | > 100 |  | > 100 µM |  | > 100 µM | > 100 µM | > 100 |  |  |  |  |  |  |  |  |  |  | 
